Numbered stars: 1 amine (or outer) side, 2 acyl side, 3 side chain; on linkers, the order of the positions; unused ones are H or OH. Square brackets hold non-standard residues; d marks the D form. Peptide text beside a SMILES is read from it. * marks the point of attachment. 5FAM = O=C1OC2(c3ccc(O)cc3Oc3cc(O)ccc32)c2ccc(C(=O)*)cc21; NHCH2C6H4(4-CH2CONH2) = NC(=O)Cc1ccc(CN*)cc1; X1 = O=C(Cc1ccc(CN[*:1])cc1)[*:2]
Target: TNFα (Homo sapiens, UniProt P01375)
Test: MST binding affinity of resynthesized NNP hits to TNFα
Set-up: purchased R&D Systems, Inc. 210-TA/CF
Conditions: read-out: KD (nM) [95% conf. int], NNP2 library hit, target TNFα, one-site binding model
In short: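 Microscale thermophoresis at room temperature, triplicate, 15, 30 and 45 min incubations; targets labeled with RED-NHS 647 dye. Buffers (all 20 mM HEPES pH 7.4 unless noted): IL-6 150 mM KCl, 10 mM MgCl2, 0.1% Pluronic F-127; IL-6R 150 mM NaCl, 10 mM MgCl2, 0.05% Tween-20; TNFα 10 mM HEPES, 150 mM NaCl, 10 mM MgCl2, 0.05% Polysorbate-20; ASGPR adds 2 mM CaCl2, 0.05% Pluronic F-127, 1 mM DTT.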

Chain of TNFα (P01375 77-233 limits assumed): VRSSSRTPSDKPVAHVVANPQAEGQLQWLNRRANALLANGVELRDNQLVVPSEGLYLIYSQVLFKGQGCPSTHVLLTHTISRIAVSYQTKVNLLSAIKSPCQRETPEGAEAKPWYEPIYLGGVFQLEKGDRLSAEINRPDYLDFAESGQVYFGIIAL

Row | Structure (SMILES) | Kd
1 | CC(C)C[C@H](NC(=O)[C@@H](CCCNC(=N)N)NC(=O)[C@@H](CCC(=O)O)NC(=O)Cc1ccc(CNC(=O)[C@H](Cc2ccccc2)NC(=O)CNC(=O)[C@@H](C)NC(=O)Cc2ccc(CNC(=O)[C@@H](NC(=O)[C@@H](CCCNC(=N)N)NC(=O)[C@H]3CCCN3C(=O)Cc3ccc(CNC(=O)[C@@H](NC(=O)[C@@H](CCC(=O)O)NC(=O)[C@@H](Cc4ccccc4)NC(=O)Cc4ccc(CNC(=O)[C@H](Cc5ccccc5)NC(=O)[C@@H](C)NC(=O)[C@@H](C)NC(=O)Cc5ccc(CNC(=O)[C@H](CC(C)C)NC(=O)[C@H](NC(=O)[C@@H](CCCCN)NC(=O)c6ccc7c(c6)C(=O)OC76c7ccc(O)cc7Oc7cc(O)ccc76)C(C)C)cc5)cc4)C(C)C)cc3)C(C)C)cc2)cc1)C(=O)NCc1ccc(CC(=O)N2CCC[C@@H]2C(=O)N[C@@H](C(=O)NCC(=O)NCc2ccc(CC(=O)N[C@H](Cc3c[nH]c4ccccc34)C(=O)N[C@H](CCCCN)C(=O)N[C@@H](CC(C)C)C(=O)NCc3ccc(CC(=O)N4CCC[C@@H]4C(=O)N[C@H](C)C(=O)N[C@@H](C)C(=O)NCc4ccc(CC(N)=O)cc4)cc3)cc2)C(C)C)cc1 [TNF-39-10] (5FAM-[dK][dV]L[X1][dA][dA]F[X1][dF][dE]V[X1][dP][dR]V[X1][dA]GF[X1][dE][dR]L[X1][dP][dV]G[X1][dW][dK]L[X1][dP][dA]A-{NHCH2C6H4(4-CH2CONH2)}) | 38 nM
2 | CC(C)C[C@H](NC(=O)[C@@H](CCCCN)NC(=O)[C@@H](Cc1c[nH]c2ccccc12)NC(=O)Cc1ccc(CNC(=O)CNC(=O)[C@H](NC(=O)[C@H]2CCCN2C(=O)Cc2ccc(CNC(=O)[C@H](Cc3ccccc3)NC(=O)[C@@H](CCCNC(=N)N)NC(=O)[C@@H](CC(N)=O)NC(=O)Cc3ccc(CNC(=O)[C@H](Cc4ccccc4)NC(=O)[C@@H](CCCCN)NC(=O)[C@@H](C)NC(=O)Cc4ccc(CNC(=O)[C@H](C)NC(=O)[C@@H](CCCNC(=N)N)NC(=O)[C@@H](Cc5ccccc5)NC(=O)Cc5ccc(CNC(=O)[C@@H](NC(=O)[C@@H](CCC(=O)O)NC(=O)[C@@H](Cc6ccccc6)NC(=O)Cc6ccc(CNC(=O)[C@H](CC(C)C)NC(=O)[C@@H](CCCNC(=N)N)NC(=O)[C@@H](CC(C)C)NC(=O)Cc7ccc(CNC(=O)[C@H](CC(C)C)NC(=O)[C@H](NC(=O)[C@@H](CCCCN)NC(=O)c8ccc9c(c8)C(=O)OC98c9ccc(O)cc9Oc9cc(O)ccc98)C(C)C)cc7)cc6)C(C)C)cc5)cc4)cc3)cc2)C(C)C)cc1)C(=O)NCc1ccc(CC(=O)N[C@H](Cc2ccc(O)cc2)C(=O)N[C@H](CCCNC(=N)N)C(=O)N[C@@H](Cc2ccccc2)C(=O)NCc2ccc(CC(N)=O)cc2)cc1 [TNF-39-11] (5FAM-[dK][dV]L[X1][dL][dR]L[X1][dF][dE]V[X1][dF][dR]A[X1][dA][dK]F[X1][dN][dR]F[X1][dP][dV]G[X1][dW][dK]L[X1][dY][dR]F-{NHCH2C6H4(4-CH2CONH2)}) | 86 nM
3 | CC(C)C[C@H](NC(=O)[C@@H](CCCNC(=N)N)NC(=O)CNC(=O)Cc1ccc(CNC(=O)[C@H](CC(C)C)NC(=O)[C@H](NC(=O)[C@@H](CO)NC(=O)c2ccc3c(c2)C(=O)OC32c3ccc(O)cc3Oc3cc(O)ccc32)C(C)C)cc1)C(=O)NCc1ccc(CC(=O)N[C@H](Cc2ccccc2)C(=O)N[C@H](CCC(=O)O)C(=O)N[C@H](C(=O)NCc2ccc(CC(=O)N[C@H](Cc3ccccc3)C(=O)N[C@H](CCCCN)C(=O)N[C@@H](CC(C)C)C(=O)NCc3ccc(CC(=O)N[C@H](Cc4ccc(O)cc4)C(=O)N[C@H](CCCCN)C(=O)N[C@@H](C)C(=O)NCc4ccc(CC(=O)N[C@H](CCC(=O)O)C(=O)N[C@H](Cc5c[nH]c6ccccc56)C(=O)N[C@@H](C)C(=O)NCc5ccc(CC(=O)N[C@H](C)C(=O)N[C@H](CCCNC(=N)N)C(=O)N[C@@H](CC(C)C)C(=O)NCc6ccc(CC(=O)N[C@H](CCC(=O)O)C(=O)N[C@H](Cc7ccc(O)cc7)C(=O)N[C@@H](Cc7ccccc7)C(=O)NCc7ccc(CC(=O)N[C@H](Cc8ccc(O)cc8)C(=O)N[C@H](CCCNC(=N)N)C(=O)N[C@@H](Cc8ccccc8)C(=O)NCc8ccc(CC(N)=O)cc8)cc7)cc6)cc5)cc4)cc3)cc2)C(C)C)cc1 [TNF-39-13] (5FAM-[dS][dV]L[X1]G[dR]L[X1][dF][dE]V[X1][dF][dK]L[X1][dY][dK]A[X1][dE][dW]A[X1][dA][dR]L[X1][dE][dY]F[X1][dY][dR]F-{NHCH2C6H4(4-CH2CONH2)}) | 40 nM
4 | CC(C)C[C@H](NC(=O)[C@@H](CCCCN)NC(=O)[C@@H](CC(C)C)NC(=O)Cc1ccc(CNC(=O)[C@H](CC(C)C)NC(=O)[C@@H](CCCNC(=N)N)NC(=O)[C@@H](CC(C)C)NC(=O)Cc2ccc(CNC(=O)[C@H](CC(C)C)NC(=O)[C@@H](CC(C)C)NC(=O)[C@@H](Cc3ccc(O)cc3)NC(=O)c3ccc4c(c3)C(=O)OC43c4ccc(O)cc4Oc4cc(O)ccc43)cc2)cc1)C(=O)NCc1ccc(CC(=O)N[C@H](Cc2ccccc2)C(=O)N[C@H](CCCNC(=N)N)C(=O)N[C@@H](C)C(=O)NCc2ccc(CC(=O)N[C@H](C)C(=O)N[C@H](CCCCN)C(=O)N[C@@H](Cc3ccccc3)C(=O)NCc3ccc(CC(=O)N[C@H](Cc4ccccc4)C(=O)N[C@@H](C(=O)N[C@@H](C)C(=O)NCc4ccc(CC(=O)N5CCC[C@@H]5C(=O)N[C@@H](C(=O)NCC(=O)NCc5ccc(CC(=O)N[C@@H](C(=O)N[C@H](Cc6c[nH]cn6)C(=O)N[C@@H](CC(C)C)C(=O)NCc6ccc(CC(=O)N[C@@H](C(=O)N[C@H](CO)C(=O)N[C@H](C(=O)NCc7ccc(CC(N)=O)cc7)C(C)C)[C@H](C)O)cc6)[C@H](C)O)cc5)C(C)C)cc4)[C@H](C)O)cc3)cc2)cc1 [TNF-39-14] (5FAM-[dY][dL]L[X1][dL][dR]L[X1][dL][dK]L[X1][dF][dR]A[X1][dA][dK]F[X1][dF][dT]A[X1][dP][dV]G[X1][dT][dH]L[X1][dT][dS]V-{NHCH2C6H4(4-CH2CONH2)}) | 36 nM
5 | CC(C)C[C@H](NC(=O)[C@@H](CCCNC(=N)N)NC(=O)CNC(=O)Cc1ccc(CNC(=O)[C@H](CC(C)C)NC(=O)[C@H](NC(=O)[C@@H](CCCCN)NC(=O)c2ccc3c(c2)C(=O)OC32c3ccc(O)cc3Oc3cc(O)ccc32)C(C)C)cc1)C(=O)NCc1ccc(CC(=O)N[C@H](Cc2ccccc2)C(=O)N[C@H](CCC(=O)O)C(=O)N[C@H](C(=O)NCc2ccc(CC(=O)N[C@H](Cc3ccccc3)C(=O)N[C@H](CCCNC(=N)N)C(=O)N[C@@H](C)C(=O)NCc3ccc(CC(=O)N[C@H](Cc4c[nH]c5ccccc45)C(=O)N[C@H](CCCNC(=N)N)C(=O)N[C@H](C(=O)NCc4ccc(CC(=O)N[C@H](CCC(=O)O)C(=O)N[C@H](CCCNC(=N)N)C(=O)N[C@@H](CC(C)C)C(=O)NCc5ccc(CC(=O)N[C@H](Cc6c[nH]cn6)C(=O)N[C@H](CCC(=O)O)C(=O)N[C@@H](CC(C)C)C(=O)NCc6ccc(CC(=O)N[C@H](CCCCN)C(=O)N[C@H](Cc7ccccc7)C(=O)N[C@@H](Cc7ccccc7)C(=O)NCc7ccc(CC(=O)N[C@H](Cc8ccc(O)cc8)C(=O)N[C@H](CCCNC(=N)N)C(=O)N[C@@H](Cc8ccccc8)C(=O)NCc8ccc(CC(N)=O)cc8)cc7)cc6)cc5)cc4)C(C)C)cc3)cc2)C(C)C)cc1 [TNF-39-15] (5FAM-[dK][dV]L[X1]G[dR]L[X1][dF][dE]V[X1][dF][dR]A[X1][dW][dR]V[X1][dE][dR]L[X1][dH][dE]L[X1][dK][dF]F[X1][dY][dR]F-{NHCH2C6H4(4-CH2CONH2)}) | 46 nM
